The values below come from patent US11214562B2, “Cyclohexyl benzamide compounds” (Eli Lilly and Company, priority 2016, dated 2022).

pEC50: −log10 of the molar value.

The target in one assay is T1, human GPR142 (Homo sapiens, UniProt Q7Z601).
T1 construct: expressed in transfected cells; host or cells: HEK293 (kept under G418 selection)
T1 sequence (Q7Z601 1-462): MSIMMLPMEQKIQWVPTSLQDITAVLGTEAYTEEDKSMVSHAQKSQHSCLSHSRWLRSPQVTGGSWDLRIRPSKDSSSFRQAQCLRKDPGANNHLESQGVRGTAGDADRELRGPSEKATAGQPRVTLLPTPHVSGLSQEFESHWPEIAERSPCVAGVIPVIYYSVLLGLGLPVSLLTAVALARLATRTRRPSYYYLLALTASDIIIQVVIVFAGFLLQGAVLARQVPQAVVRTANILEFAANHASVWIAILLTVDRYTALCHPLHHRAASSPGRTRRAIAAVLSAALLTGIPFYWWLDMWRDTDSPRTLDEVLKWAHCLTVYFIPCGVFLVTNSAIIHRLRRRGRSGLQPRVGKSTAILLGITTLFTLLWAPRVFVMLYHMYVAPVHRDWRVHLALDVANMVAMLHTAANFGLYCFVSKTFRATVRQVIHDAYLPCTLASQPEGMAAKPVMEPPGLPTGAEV
The assay is described as follows: GPR142 agonist effect as measured by IP-1 assay (IP-One HTRF). It is filed as cell-based. The method, then: Biological Assays GPR142 Agonist Effect as Measured by IP-1 Assay
HEK293 cells expressing human GPR142 are maintained in DMEM supplemented with 10% FBS and 800 μg/ml G418 (Geneticin®) at 37° C. and 5% CO2. Plate the cells in 384 well plates at 5000 cells per well and allow 18 hrs for attachment. Add the test compound at varying concentrations ranging from 30 μM to 1 nM. Incubate the cells for 1 hr. IP-1 measurements are performed using an IP-One HTRF® assay kit (Cisbio) according to manufacturer's protocol using an assay buffer containing 1×HBSS (+Ca, +Mg), 0.1% BSA, 50 mM LiCl and 20 mM HEPES, pH 7.2. Stop the reaction by the addition of IP1-d2 (IP-1 coupled to an organic HTRF acceptor) followed by cryptate solution (http://www.htrf.com/usa/htrf-chemistry). Incubate the plates at 25° C. for 1 hr. Read the fluorescence in an Envision instrument at 665 nm and 620 nm wavelength. Calculate the ratio of 665 nm/620 nm fluorescence and convert to IP-1 levels using an IP-1 standard curve. The data is fit to a 4 parameter-fit logistics to determine EC50 values.
(Time-resolved FRET reads energy transfer from a long-lived donor to a nearby acceptor.)

For the next assay, the target named is T2, GPR142 (Mus musculus, UniProt Q7TQN9).
T2 construct: from tissue; host or cells: whole animal, male C57BL/6 mice
T2 sequence (Q7TQN9 1-365): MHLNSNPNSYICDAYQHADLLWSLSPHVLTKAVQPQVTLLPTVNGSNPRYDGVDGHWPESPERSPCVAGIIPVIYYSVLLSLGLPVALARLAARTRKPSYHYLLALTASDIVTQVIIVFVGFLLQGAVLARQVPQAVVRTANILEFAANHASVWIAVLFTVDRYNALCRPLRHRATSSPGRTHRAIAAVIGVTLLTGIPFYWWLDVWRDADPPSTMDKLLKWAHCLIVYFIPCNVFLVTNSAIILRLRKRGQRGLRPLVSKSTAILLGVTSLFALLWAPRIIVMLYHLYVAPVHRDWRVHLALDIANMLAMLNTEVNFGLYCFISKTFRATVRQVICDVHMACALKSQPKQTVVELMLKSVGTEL
Kind of assay: Intraperitoneal glucose tolerance test (IPGTT). It is filed as in vivo. As to conditions: male C57BL/6 mice, oral dose 90 min prior to 2 g/kg i.p. glucose challenge. The text has this:
Intraperitoneal Glucose Tolerance Tests (IPGTT)
The IPGTT assay is used to examine the ability of a compound to activate GPR142 in vivo resulting in anti-diabetic efficacy, i.e. reduction in plasma glucose levels. Male C57BL/6 mice (8-10 weeks of age) are fed normal rodent chow diet and water ad libitum. On the night before the study, fast the animals overnight in clean cages. On the morning of the study, orally dose the animals with either vehicle or a test compound at the indicated doses 90 min prior to the glucose challenge (2 g/kg) by intraperitoneal injection. Determine the blood glucose levels from tail bleeds taken immediately prior to compound dosing (−90 min) and 0, 15, 30, and 60 min after glucose challenge using handheld glucometers. Use the blood glucose profile from t=0 to t=60 min to calculate an area under the curve (AUC) for each treatment. Calculate the percent glucose lowering. The AUC is calculated for each treatment group with respect to the AUC of vehicle group. A compound with a reduction in glucose AUC (P<0.05) is considered positive in the assay.

Turning to `Cc1ncn(C)c1-c1nnc([C@H]2CCC[C@@H](N(C)C(=O)c3cccc(Cl)c3)C2)[nH]1` [Example 1], the pEC50 at human GPR142 (HEK293 cells expressing human GPR142, 1 hr incubation, IP-1 HTRF, read-out: hGPR142 IP1 EC50) was 7.84. The “hGPR142 IP1 relative efficacy” value on human GPR142 (HEK293 cells expressing human GPR142, IP-1 HTRF) was found to be 110%. Further, the “IPGTT outcome (reduction in glucose AUC, P<0.05, is positive)” value on GPR142 is listed as “positive”. Also, the “ED50 (glucose AUC lowering in IPGTT)” value at GPR142 (AUC t=0 to 60 min) was 0.25 mpk.

The term pEC50 denotes the EC50 on a negative log10 scale, so that one unit is a factor of ten.
